Assay results reported in patent US7666864B2, “Bicyclic nitroimidazole-substituted phenyl oxazolidinones” (priority 2008, dated 2010).
Converted amounts (≈) assume the structure as drawn. Where two headings read alike, the source gives them in different places.

How the values were obtained:
[1] = system: Staphylococcus aureus ATCC 29213; assay: MIC against Staphylococcus aureus ATCC 29213, microbroth dilution (NCCLS); format: cell-based; conditions: for activity against Staphylococcus aureus ATCC 29213 (in words): Gram-positive species; for MIC: Staphylococcus aureus, ATCC29213, microbroth dilution, read-out: MIC S. aureus ATCC# 29213
[2] = system: S. aureus ATCC# 29213 (Lzd-resistant); assay: microbe, parasite or virus in culture; format: cell-based, Staphylococcus aureus; conditions: for MIC: Staphylococcus aureus, ATCC29213, linezolid-resistant isogenic strain; for MIC against strain resistant to linezolid: linezolid-resistant S. aureus
[3] = system: Mycobacterium tuberculosis H37Rv; assay: MIC against Mycobacterium tuberculosis H37Rv (method of Gruppo); format: cell-based; conditions: for MIC: Mycobacterium tuberculosis, H37RV
[4] = system: Mycobacterium tuberculosis H37Rv; assay: Anaerobic activity against Mycobacterium tuberculosis H37Rv under Wayne conditions (method of Lenaerts); format: cell-based

| Structure (SMILES) | activity against Staphylococcus aureus ATCC 29213 (in words) [1] | MIC [1] | MIC [2] | MIC against strain resistant to linezolid [2] | MIC [3] | M. tuberculosis H37Rv % survival at 10 ug/mL (Low O2) [4] | fold less potent than PA-824, in vitro MIC [3] | fold less potent than linezolid, in vitro MIC [3] | M. tuberculosis H37Rv % survival at 10 ug/mL (Low O2) ([4]; listed as linezolid) |
| --- | --- | --- | --- | --- | --- | --- | --- | --- | --- |
| CC(=O)NC[C@H]1CN(c2ccc(-c3cnc(O[C@@H]4COc5nc([N+](=O)[O-])cn5C4)nc3)c(F)c2)C(=O)O1 [Example 8, (S,S)—N-(3-{3-Fluoro-4-[2-(2-nitro-6,7-dihydro-5H-imidazo[2,1-b][1,3]oxazin-6-yloxy)-pyrimidin-5-yl]-phenyl}-2-oxo-oxazolidin-5-ylmethyl)-acetamide] | more potent than linezolid | 1 µg/mL (≈ 1.95 µM) | 8 µg/mL (≈ 15.6 µM) | 8 micg/mL | 1 µg/mL (≈ 1.95 µM) | – | – | – | – |
| CC(=O)NC[C@H]1CN(c2ccc(-c3ccc(CO[C@@H]4COc5nc([N+](=O)[O-])cn5C4)cc3)c(F)c2)C(=O)O1 [Example 31, (S,S)—N-{3-[2-Fluoro-4′-(2-nitro-6,7-dihydro-5H-imidazo[2,1-b][1,3]oxazin-6-yloxymethyl)-biphenyl-4-yl]-2-oxo-oxazolidin-5-ylmethyl}-acetamide] | more potent than linezolid | 1 µg/mL (≈ 1.9 µM) | 4 µg/mL (≈ 7.61 µM) | 4 micg/mL | 0.5 µg/mL (≈ 0.951 µM) | – | – | – | – |
| CC(=O)NC[C@H]1CN(c2ccc(OCC3(C)Cn4cc([N+](=O)[O-])nc4O3)c(F)c2)C(=O)O1 (stereo partly shown) [Example 50, N-{3-[3-Fluoro-4-(2-methyl-6-nitro-2,3-dihydro-imidazo[2,1-b]oxazol-2-ylmethoxy)-phenyl]-2-oxo-oxazolidin-5-ylmethyl}-acetamide] | – | 64 µg/mL (≈ 142 µM) | – | – | 4 µg/mL (≈ 8.9 µM) | 1.8% | 8 fold | 2 fold | – |
| CC(=O)NC[C@H]1CN(c2ccc(N3CCOCC3)c(F)c2)C(=O)O1 [Linezolid, linezolid, reference compound] | – | 2 µg/mL (≈ 5.93 µM) | 64 µg/mL (≈ 190 µM) | 64 micg/mL | 2 µg/mL (≈ 5.93 µM) | 28.2% | – | – | 28.2% |
| O=[N+]([O-])c1cn2c(n1)OC[C@@H](OCc1ccc(OC(F)(F)F)cc1)C2 [PA-824, reference compound] | – | > 64 µg/mL | > 64 µg/mL | – | 0.5 µg/mL (≈ 1.39 µM) | 3.6% | – | – | – |
